Laboratory results reported in patent publication US20250186448A1 (Mezzion Pharma Co., Ltd., priority 2021, published 2025).
Where “and” joins values, the source holds several entries; their conditions need not be identical. Equal entries are not always repeated.

System: adolescents with Single Ventricle Heart Disease who underwent Fontan palliation
Assay: FALD study (FUEL Extension): Enhanced Liver Fibrosis (ELF) score from serum HA, PIIINP, TIMP-1
Format: in vivo, human
Design: key to Baseline ELF, Mean (SD) / ELF Score, Post Baseline: ELF score: <7.7 none/mild, 7.7-9.8 moderate, 9.8-11.3 severe, >11.3 cirrhosis
Excerpt: The FALD study, ClinicalTrials.gov Identifier: NCT03430583, which is incorporated herein by reference in its entirety, was an open-label extension study that integrated with the FUEL Extension Trial. […] Both the U− cohort and the U+ cohort had liver stiffness measured by ultrasound and MR elastography (where available), and ELF biomarkers analyzed, as described above. […] The Enhanced Liver Fibrosis (ELF) scores were based on the serum levels of hyaluronic acid (HA), amino-terminal propeptide of type III collagen (PIIINP), and tissue inhibitor of metalloproteinase-1 (TIMP-1). Testing was performed by the FUEL-OLE Central Laboratory using the serum samples. In accordance with prior studies, we assigned those patients with scores of <7.7 to the no-fibrosis or mild fibrosis group, 7.7-9.8 to the moderate fibrosis group, 9.8-11.3 to the severe fibrosis group, and >11.3 to the cirrhosis group. The primary outcome measure of the FALD study was the range of liver stiffness in adolescents with Single Ventricle Heart Disease who underwent Fontan palliation. Secondary outcome measures included the effect of drug therapy on liver stiffness, and the effect of drug therapy on Enhanced Liver Fibrosis (ELF) score. See Clinical Trials.gov identifier NCT03430583, at p. 3. It is to be understood that present invention contemplates udenafil drug products that are therapeutically equivalent to the udenafil drug products of the present invention.

[1] = Cohort U+ & U− Pooled, baseline ELF Cirrhosis (N 17)
[2] = Cohort U+ & U− Pooled, baseline ELF moderate fibrosis (N 20)
[3] = Cohort U+ & U− Pooled, baseline ELF moderate fibrosis (N 20), listed as udenafil
[4] = Cohort U+ & U− Pooled, baseline ELF severe fibrosis (N 36)
[5] = Cohort U+, baseline ELF Cirrhosis (N 9)
[6] = Cohort U+, baseline ELF moderate fibrosis (N 8)
[7] = Cohort U+, baseline ELF severe fibrosis (N 15)
[8] = Cohort U− (udenafil for 52 weeks), individual subject
[9] = Cohort U−, baseline ELF Cirrhosis (N 8)
[10] = Cohort U−, baseline ELF moderate fibrosis (N 12)
[11] = Cohort U−, baseline ELF moderate fibrosis (N 12), listed as udenafil
[12] = Cohort U−, baseline ELF severe fibrosis (N 21)
[13] = FALD, cohort U+ (78 weeks udenafil)

Compound: CCCOc1ccc(S(=O)(=O)NCCC2CCCN2C)cc1-c1nc2c(CCC)nn(C)c2c(=O)[nH]1 (stereo not shown) [Udenafil, udenafil]
- Patients with Improved ELF fibrosis category (Cohort U+ & U− Pooled, 41/73): 41/73 (56%) Improved
- Patients with post baseline ELF score Mild, n (%) [1]: 0
- Patients with post baseline ELF score Sev, n (%) [1]: 13 (76%)
- Patients with post baseline ELF score Sev, n (%) (Cohort U+ & U− Pooled, baseline ELF Cirrhosis (N 17), listed as udenafil): 6
- Patients with post baseline ELF score Mild, n (%) [2]: 1 (5%)
- Patients with post baseline ELF score Sev, n (%) [2]: 8 (40%)
- Patients with post baseline ELF score Mild, n (%) [3]: 1
- Patients with post baseline ELF score Sev, n (%) [3]: 8
- Patients with post baseline ELF score Mild, n (%) [4]: 0
- Patients with post baseline ELF score Sev, n (%) [4]: 13 (36%)
- Patients with post baseline ELF score Sev, n (%) (Cohort U+ & U− Pooled, baseline ELF severe fibrosis (N 36), listed as udenafil): 8
- Patients with Improved ELF fibrosis category (Cohort U+, 19/32): 19/32 (59%) Improved
- Patients with post baseline ELF score Mild, n (%) [5]: 0
- Patients with post baseline ELF score Sev, n (%) [5]: 7 (78%)
- Patients with post baseline ELF score Sev, n (%) (Cohort U+, baseline ELF Cirrhosis (N 9), listed as udenafil): 7
- Patients with post baseline ELF score Mild, n (%) [6]: 0
- Patients with post baseline ELF score Sev, n (%) [6]: 0
- Patients with post baseline ELF score Mild, n (%) [7]: 0
- Patients with post baseline ELF score Sev, n (%) [7]: 5 (33%)
- Patients with post baseline ELF score Sev, n (%) (Cohort U+, baseline ELF severe fibrosis (N 15), listed as udenafil): 5
- ELF Score, % Change from Baseline [8]: −7.61% and −11.19% and −20.06% and −15.92% and 10.85% and 9.365%
- ELF Score, Change from Baseline [8]: −0.78 and −1.22 and −2.03 and −1.85 and 0.97 and 0.9 and 0.26
- ELF Score, Post Baseline (Cohort U− (udenafil for 52 weeks), individual subject, Post Baseline visit (52 week)): 9.47 and 9.68 and 8.09 and 9.77 and 9.91 and 10.51 and 9.67
- Patients with Improved ELF fibrosis category (Cohort U−, 22/41): 22/41 (54%) Improved
- Patients with post baseline ELF score Mild, n (%) [9]: 0
- Patients with post baseline ELF score Sev, n (%) [9]: 6 (75%)
- Patients with post baseline ELF score Sev, n (%) (Cohort U−, baseline ELF Cirrhosis (N 8), listed as udenafil): 6
- Patients with post baseline ELF score Mild, n (%) [10]: 1 (8%)
- Patients with post baseline ELF score Sev, n (%) [10]: 8 (67%)
- Patients with post baseline ELF score Mild, n (%) [11]: 1
- Patients with post baseline ELF score Sev, n (%) [11]: 8
- Patients with post baseline ELF score Mild, n (%) [12]: 0
- Patients with post baseline ELF score Sev, n (%) [12]: 8 (38%)
- Patients with post baseline ELF score Sev, n (%) (Cohort U−, baseline ELF severe fibrosis (N 21), listed as udenafil): 8
- ELF Percent Change: Week 52-Baseline, Median (FALD, Total): −7.2%
- Week 52 ELF, Median (FALD, Total): 9.7
- Baseline ELF, Mean (SD) (FALD, Total (U+ and U−)): 10.4
- Week 52 ELF, Mean (SD) (FALD, Total (U+ and U−)): 9.8
- ELF Percent Change: Week 52-Baseline, Mean (SD) (FALD, Total, p <0.0001 vs 0): −6.8 (7.69) %
- Week 52 ELF, Median (FALD, cohort U+): 9.6
- Baseline ELF, Mean (SD) (FALD, cohort U+ (6 months udenafil in FUEL before baseline)): 10.5
- Baseline ELF, Mean (SD) (FALD, cohort U+ (6 months udenafil in FUEL before baseline), listed as udenafil): 10.5
- Week 52 ELF, Mean (SD) (FALD, cohort U+ (18 months udenafil, 87.5 mg twice daily)): 9.7
- Week 52 ELF, Mean (SD) (FALD, cohort U+ (18 months udenafil, 87.5 mg twice daily), listed as udenafil): 9.7
- Patients with improved ELF scores [13]: About 94%
- Subjects with a decrease (improvement) in ELF score [13]: all but 2 of 31
- ELF Percent Change: Week 52-Baseline, Mean (SD) (FALD, cohort U+, p <0.0001 vs 0): −8.0 (5.56) %
- Average improvement of ELF score, baseline to week 52 (FALD, cohort U+, p=0.0001): approximately 8%
- ELF Percent Change: Week 52-Baseline, Median (FALD, cohort U−): −6.1%
- Week 52 ELF, Median (FALD, cohort U−): 9.9
- Week 52 ELF, Mean (SD) (FALD, cohort U− (1 year udenafil, 87.5 mg twice daily)): 9.8
- Week 52 ELF, Mean (SD) (FALD, cohort U− (1 year udenafil, 87.5 mg twice daily), listed as udenafil): 9.8
- Subjects with a decrease (improvement) in ELF score, number (FALD, cohort U− (52 weeks udenafil), of 40 subjects): about 30
- Baseline ELF, Mean (SD) (FALD, cohort U− (udenafil-naïve at baseline)): 10.3
- Baseline ELF, Mean (SD) (FALD, cohort U− (udenafil-naïve at baseline), listed as udenafil): 10.3
- Average improvement of ELF score, baseline to week 52 (FALD, cohort U−, based on paired data): about 5.9%
- ELF Percent Change: Week 52-Baseline, Mean (SD) (FALD, cohort U−, p 0.0001 vs 0): −5.9 (8.98) %
- Subjects with an improved ELF score (FALD, overall (U+ and U−)): about 84%
